We go through eleven compounds from ChEMBL document CHEMBL3352337, “Scaffold-switching: an exploration of 5,6-fused bicyclic heteroaromatics systems to afford antituberculosis activity akin to the imidazo[1,2-a]pyridine-3-carboxylates” (Bioorg Med Chem Lett, 2014).

What is called MIC is the least concentration at which growth counts as inhibited. A high value points to weaker potency.

SMILES strings stand for the structures. In brackets after ≈: the same amount, converted by molar mass.

The assay relates to Mycobacterium tuberculosis variant bovis BCG. The assay can be described thus: Antimycobacterial activity against Mycobacterium bovis BCG ATCC 35734 in 7H12 medium after 6 days and 18 hrs after adding resazurin dye/Tween 80 by Microplate Alamar Blue assay. The class given is functional. On the technique in general: Resazurin is reduced to fluorescent resorufin, in cell work by metabolically active cells.
In turn, `Cc1ccn2c(C)c(C(=O)NCc3ccccc3)nc2c1` gave an MIC greater than 128 µM.

Consider `NNC(=O)c1ccncc1` [ISONIAZID], for which the minimum inhibitory concentration (MIC) came out at 0.41 µM (≈ 0.0562 µg/mL).

In the case of `Cc1ccc2c(C(=O)NCc3ccccc3)n[nH]c2c1`, the MIC is greater than 128 µM.

Compound `Cc1ccc2nc(C)c(C(=O)NCc3ccccc3)n2c1` returned an MIC of 0.96 µM (≈ 0.268 µg/mL).

In the case of `Cc1ccc2nc(C)c(C(=O)NCc3ccccc3)n2n1`, the minimal inhibitory concentration (MIC) is greater than 128 µM.

The compound `Cc1cnc2nc(C)c(C(=O)NCc3ccccc3)n2c1` had an MIC of 7.8 µM (≈ 2.19 µg/mL).

The compound `Cc1cc(C)n2nc(C(=O)NCc3ccccc3)nc2n1` displayed a minimum inhibitory concentration (MIC) greater than 128 µM.

As to `COc1c(N2C[C@@H]3CCCN[C@@H]3C2)c(F)cc2c(=O)c(C(=O)O)cn(C3CC3)c12` [MOXIFLOXACIN], the minimal inhibitory concentration (MIC) is 0.06 µM (≈ 0.0241 µg/mL).

`CO[C@H]1/C=C/O[C@@]2(C)Oc3c(C)c(O)c4c(O)c(c(/C=N/N5CCN(C)CC5)c(O)c4c3C2=O)NC(=O)/C(C)=C\C=C\[C@H](C)[C@H](O)[C@@H](C)[C@@H](O)[C@@H](C)[C@H](OC(C)=O)[C@@H]1C` [RIFAMPIN] came in with an MIC of less than 0.004 µM.

As for `Cc1ccc2c(C(=O)NCc3ccccc3)c(C)[nH]c2c1`, the MIC is greater than 128 µM.

Compound `Cc1ccn2c(C(=O)NCc3ccccc3)nnc2c1` came in with an MIC greater than 128 µM.
